Earlier results on three compounds are cited in article PMC7493416 (ACS Sustainable Chemistry & Engineering, 2019).

SMILES strings stand for the structures.

For data set [1] the following is noted: general statement, no reference given.

As for `CN(C)C=O` [DMF, dimethylformamide], the Reproductive toxicity result was “display reproductive toxicity”.

`CN1CCCC1=O` [NMP, N-methylpyrrolidone]: the Reproductive toxicity result is listed as “display reproductive toxicity”.

Take `O=C1CCCCCC1` [cycloheptanone]: in data set [1], the Solubility in water result is “insoluble in water”.
